In patent US20140328944A1, “USE OF CTBP1 siRNA FOR THE TREATMENT OF GASTRIC CANCER” (CTI, priority 2013, published 2014):

Test system: AGS and MKN45 gastric cancer cell lines
Assay: MTS-based cell proliferation assay after siRNA transfection (drug dose-response)
Conditions: CTBP1 siRNA (5 nM) vs untreated cells (WT) and control siRNA, 72 h drug incubation
Method: MKN45 cell lines were grown in RPM1-1640 media and AGS cell lines in F12K, both media were supplemented with 10% characterized fetal bovine serum (FBS) (Hyclone, Logan, Utah, USA) and 100 U /ml of Penicillin /Streptomycin (Gibco BRL, Gaithersburgh, Md., USA). Cells were grown in an incubator (NUAIRE, Plymouth, USA) at 37° C. with an atmosphere of 5% CO2 and 90% humidity. The drugs 5-FU, Cisplatin and Epirubicin were donated for this research by the Kampar Oncology Laboratory (Santiago, Chile).
In 6-well plates, 200,000 cells were cultured in their respective culture medium with 10% FBS for 24 h at 37° C. and 5% CO2 pressure. Then cells were washed once with PBS IX and 900 ul of their respective medium without serum and without antibiotic were added.
The cells were transfected with a pool of 4 siRNA Flexitube siRNA CTBP1 and siRNA control AllStars Negative Control (QIAGEN, Valencia, Calif., USA) at a concentration of 5 nM with 2.5 ul of Lipofectamine 2000 (Invitrogen, Carlsbad, Calif., USA). […]
24 hours after transfection, cells were seeded in 96 well plates at a concentration of 10,000 cells per well. […] The IC50 values were calculated using GraphPad 5.0 software. The results of the response to the drugs were expressed as mean±SD. […]

SMILES	increase in sensitivity to the drug on silencing of CTBP1 with siRNA
O=c1[nH]cc(F)c(=O)[nH]1 [5-FU, 5-Fluorouracil]	approximately 6 times
COc1cccc2c1C(=O)c1c(O)c3c(c(O)c1C2=O)C[C@@](O)(C(=O)CO)C[C@@H]3O[C@H]1C[C@H](N)[C@@H](O)[C@H](C)O1 [Epirubicin]	12-17 times
